In data set [1] the test system is MDA-MB-231 triple negative breast cancer cell line. Details: method as in earlier work. Particulars: cited from earlier work.
Data set [2] concerns A498 renal cancer cell line. The experiment in a line: cells. Particulars: Homo sapiens.
Data set [3] deals with melanoma LOX IMVI cell line. The experiment in a line: Annexin V-FITC/PI apoptosis and necrosis assay. It is filed as cell-based, human. Particulars: LOX IMVI treated with IC50 concentration. The protocol: Following the manufacturer’s instructions, the Annexin V-FITC Apoptosis Detection Kit (Bio Vision Research Products, USA) was used to analyze cell apoptosis. Briefly, 500 µL of 1X Binding buffer was used to resuspend 1-5 × 10^5 cells that had been harvested by centrifugation. Propidium iodide (PI, 50 mg/ml) and Annexin V-FITC, each administered in 5 µL, were also added. The cells were first incubated for 5 minutes at room temperature in the dark before being analyzed using the Annexin V-FITC binding flow cytometric technique (Ex = 488 nm; Em = 530 nm) with a FITC signal detector (typically FL1) and PI staining with a phycoerythrin emission signal detector (typically FL2). Before exposing adherent cells to Annexin V-FITC, we gently trypsinized and gave them a single wash in serum-containing medium (A.3–5). Cell synchronisation is done using Double-thymidine synchronization method and the used Media is double modifed eagle media (DMEM).
Cell cycle analysis and detection of apoptosis
Annexin V-FITC apoptosis assay
Cell apoptosis were analyzed by the Annexin V-FITC Apoptosis Detection Kit (Bio Vision Research Products, USA). Thereafter, 1-5 x 10^5 cells were collected by centrifugation and resuspend in 500 μl of 1X Binding Buffer. Added 5 μl of Annexin V-FITC and 5 μl of propidium iodide (PI 50mg/ml, optional.). The cells incubated at room temperature for 5 min in the dark; Analyzed by Annexin V-FITC binding flow cytometric method (Ex = 488 nm; Em = 530 nm) using FITC signal detector (usually FL1) and PI staining by the phycoerythrin emission signal detector (usually FL2). For adherent cells, we gently trypsinized and washed cells once with serum-containing media before incubation with Annexin V-FITC (A.3-5). […]

Another data set deals with T1, topoisomerase IIβ (Homo sapiens, UniProt Q02880).
T1 construct: purchased
T1 sequence (Q02880 whole entry): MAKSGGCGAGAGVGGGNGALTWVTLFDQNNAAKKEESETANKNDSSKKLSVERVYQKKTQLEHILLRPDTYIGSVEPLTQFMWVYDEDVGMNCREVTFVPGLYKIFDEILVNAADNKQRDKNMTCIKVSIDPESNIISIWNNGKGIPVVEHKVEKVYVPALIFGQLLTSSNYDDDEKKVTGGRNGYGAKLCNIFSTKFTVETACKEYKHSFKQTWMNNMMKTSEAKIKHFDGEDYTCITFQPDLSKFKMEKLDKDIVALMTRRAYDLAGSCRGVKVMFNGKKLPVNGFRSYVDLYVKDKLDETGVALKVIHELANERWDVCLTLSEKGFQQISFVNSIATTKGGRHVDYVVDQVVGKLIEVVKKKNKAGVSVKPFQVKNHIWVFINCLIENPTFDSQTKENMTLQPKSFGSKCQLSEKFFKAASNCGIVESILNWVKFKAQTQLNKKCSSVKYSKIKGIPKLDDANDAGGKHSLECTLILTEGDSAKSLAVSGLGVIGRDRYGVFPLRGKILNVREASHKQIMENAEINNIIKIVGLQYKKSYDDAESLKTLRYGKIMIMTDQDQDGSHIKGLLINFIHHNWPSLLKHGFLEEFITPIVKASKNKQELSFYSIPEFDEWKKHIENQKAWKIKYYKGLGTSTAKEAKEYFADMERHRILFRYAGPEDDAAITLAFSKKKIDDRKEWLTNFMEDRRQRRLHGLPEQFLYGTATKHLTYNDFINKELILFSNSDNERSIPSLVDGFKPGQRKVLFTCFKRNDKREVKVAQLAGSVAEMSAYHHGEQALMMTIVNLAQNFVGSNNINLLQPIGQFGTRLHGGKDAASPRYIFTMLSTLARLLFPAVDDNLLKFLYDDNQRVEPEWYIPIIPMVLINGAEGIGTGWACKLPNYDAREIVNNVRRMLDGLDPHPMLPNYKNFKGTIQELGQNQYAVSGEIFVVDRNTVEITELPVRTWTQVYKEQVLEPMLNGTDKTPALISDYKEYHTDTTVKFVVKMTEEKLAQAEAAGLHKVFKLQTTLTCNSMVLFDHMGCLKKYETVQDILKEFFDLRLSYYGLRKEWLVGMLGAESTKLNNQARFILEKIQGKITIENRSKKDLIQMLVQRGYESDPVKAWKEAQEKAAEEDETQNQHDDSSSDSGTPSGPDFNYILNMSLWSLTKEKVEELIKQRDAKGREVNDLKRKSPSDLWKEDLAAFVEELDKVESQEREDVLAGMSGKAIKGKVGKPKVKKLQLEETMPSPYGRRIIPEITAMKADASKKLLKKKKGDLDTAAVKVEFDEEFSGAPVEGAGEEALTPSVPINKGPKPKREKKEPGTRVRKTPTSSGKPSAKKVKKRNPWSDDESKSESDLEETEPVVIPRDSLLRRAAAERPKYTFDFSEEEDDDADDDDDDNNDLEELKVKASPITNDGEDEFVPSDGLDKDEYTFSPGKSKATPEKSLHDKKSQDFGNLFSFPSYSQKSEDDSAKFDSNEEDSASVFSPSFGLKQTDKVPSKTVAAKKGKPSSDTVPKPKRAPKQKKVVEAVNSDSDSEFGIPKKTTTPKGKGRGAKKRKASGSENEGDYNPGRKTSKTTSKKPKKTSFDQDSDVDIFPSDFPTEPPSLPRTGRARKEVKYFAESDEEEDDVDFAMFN
The data set can be described thus: Topoisomerase II inhibition, human DNA topoisomerase Elisa kit. It counts as biochemical. Here is the method:
(§1) Two folds of serial dilution was accomplished after standards and the tested compounds were dissolved in sample diluent. Horseradish peroxidase (HRP-avidin) and biotin-conjugated antibody were diluted 10 times each. Each well received 100 µL of each concentration of the standard or test chemicals, which were then added and incubated at 37 °C for 60 min. […] The microtiter plate was rinsed three times and given room to aspirate. After that, the plate was incubated at 37 °C for 60 min with 100 µL of HRP-avidin solution added to each well. After that, the plate was aspirated and cleaned 5 times. Each well received 90 µL of TMB substrate, and the plate was incubated for 30 min. at 37 °C in a light-protected environment. Finally, stop solution (50 µL) was loaded, and within 5 min, the absorbance at 450 nm was measured spectrophotometrically.
(§2) Topoisomerase enzyme assay
(§3) Topoisomerase I and II inhibitory activity […]
(§4) topoisomerase IIβ inhibitory activity utilizing the human DNA topoisomerase Elisa kit.
(§5) Standards and the tested compound were dissolved in sample diluent and 2 folds serial dilution was achieved. Biotin-conjugated antibody and avidin conjugated Horseradish Peroxidase (HRP-avidin) were diluted to 10 folds. 100 μL of each concentration of standard or test compound were added to each well. Incubate at 37 °C for 1 h. The liquid in each well was removed. 10 0 μL of Biotin-conjugated antibody solution was added to each well followed by incubation for 1 h at 37 °C. The microtiter plate was allowed to aspirate and washed 3 times. 100 μL of avidin conjugated Horseradish Peroxidase (HRP -avidin) solution was added to each well and the plate was incubated for 1 h at 37 °C. The plate was aspirated and washed 5 times. 90 μL of TMB substrate were added to each well and the plate was incubated for 30 min at 37 °C and protected from light. 50 μL stop so lution was added. The absorbance was measured spectrophotometrically within 5 min at 450 nm .

For data set [4], the system named is human melanoma LOX IMVI. The experiment in a line: cells.
The subject of a further data set is normal cell line WI 38. The experiment in a line: MTT cytotoxicity assay on normal cells. It counts as cell-based. Particulars: Homo sapiens; normal cell line WI 38, MTT assay, ± SEM; read-out: IC50 W138 normal cell line (µM ± SEM). The protocol: After 24 h of culture incubation and supernatants discarded. […] Each test should include a blank containing complete medium without cells. […] Add reconstituted MTT in an amount equal to 10% of the culture medium volume. […] Spectrophotometrically absorbance was measured at a wavelength of 570 nm. […] Results from all experiments were recorded and the percentage of viable cells was calculated.
Background: Formazan colour is commonly taken as a measure of viable cells.

The test system of data set [5] is melanoma LOX IMVI cell line. The experiment in a line: Cell cycle analysis, propidium iodide flow cytometry. Particulars: LOX IMVI treated at IC50 concentration. It counts as cell-based, human. The protocol:
The effect of compound 3i on cell cycle progression of LOX IMVI cell line was evaluated using Propidium Iodide Flow Cytometry Kit to measure the DNA content according to the reported protocols. The LOX IMVI cells used in this work were obtained from the American Type Culture Collection. Cells were cultured in DMEM (Invitrogen/Life Technologies) supplemented with 10% FBS (Hyclone), 10 µg/ml insulin (Sigma), and 1% penicillin-streptomycin. The remaining chemicals and reagents were all from Sigma or Invitrogen. Growth media was removed, cells washed with warm PBS and aspirated. Adhered cells were detached from media by addition of 5 ml 10% trypsin/EDTA and incubated 2 min in the incubator. The suspended cells harvested, aspirated to a falcon tube, centrifuged at 2000 rpm for 5 min. Cell count performed after suspending the cells into a fresh media and stained with trypan blue, counted and used for preparation of the appropriate number of cells.
(In general: Flow cytometry measures light scatter and fluorescence of single cells or particles in a stream.)

The subject of the next data set is PARP-1. The experiment in a line: Western blot of protein expression in LOX IMVI cells. It is filed as cell-based, human. Particulars: control = 1. Here is the method:
(§6) To evaluate the expression level of the apoptosis modulatory markers Bax, caspase 3 and PARP-1, western blot was performed as formerly described. Three different groups of LOX IMVI cells were permitted to grow to reach 70–80% confluence in […] flasks. The first group of LOX IMVI cells was treated with compound 3i. […] The media was taken out after 48 h, and cells underwent three rounds of ice-cold PBS washing. RIPA lysis buffer [consisting of Tris-HCl pH 7.6 (25 mM), NaCl (150 mM), EDTA (5 mM), NP-40 or Triton X-100 (1%), sodium deoxycholate (1%), SDS1 (1%)] with the proper phosphatase and a protease inhibitor was used to create the whole-cell lysate for 30 min. After centrifuging the mixture at 12,000 rpm for 20 min and sonicating it for five minutes, the supernatant was collected, split into aliquots, and kept at -80 °C. The Biuret method was used to determine protein content[27],[28]. Proteins in each matched cell lysate were denatured in 2 Laemmli buffer containing 5% β--mercaptoethanol at 95 °C for 5 min. For SDS-PAGE electrophoresis, 20 µg of protein per lane were loaded at 100 volts through a 6% stacking gel, then at 125 volts through a 10% resolving gel for around 2 h, and then transferred to a PVDF membrane using a semidry transfer apparatus (made by Cleaver Scientific) for 25 min. The PVDF membrane was first incubated for one hour at 4 °C in TBS buffer containing 0.1% Tween (TBST) and 5% fat-free milk, then overnight at 4 °C with monoclonal anti-Bax, anti-PARP-1, and anti-caspase-3 as primary antibodies (Cell Signalling Technology) at a dilution of 1:500. Membranes were first treated overnight, then three times washed in TBST buffer, then incubated at room temperature for 60 min with the corresponding HRP (horse radish peroxidase)-linked secondary antibodies (Dako). Then the substrate for the chemiluminescent Western ECL (Perkin Elmer, Waltham, MA) was added to the blot as described by the manufacturer by incubating the membranes with equal volumes of ECL solution A and ECL solution B for 1 min.
(Immunoblotting shows a protein as a band on a membrane.)

For the next data set, the system named is active caspase-3. Described as above. Particulars: control = 1. It counts as cell-based, human. Here is the method: as §6
For another data set, the system named is Bax. Described as above. It counts as cell-based, human. Particulars: control = 1. The protocol:
as §6

Data set [6] has as its system MCF-7 breast adenocarcinoma cell line. Details: method as in PMID 24287557. Particulars: cited from earlier work.
The subject of data set [7] is MDA-MB-231 breast adenocarcinoma. Details: method as in PMID 24287557. Particulars: cited from earlier work.
The test system of data set [8] is A549 lung cancer cell line. Set-up: method as in PMID 27614408. Particulars: cited from earlier work.
The subject of data set [9] is A498 renal cancer cell line. Particulars: read-out: In vitro cytotoxicity (IC50) A498 cell line (µM ± SEM), A498, MTT assay.
The target in another data set is T2, topoisomerase Iα (Homo sapiens, UniProt P11387).
T2 construct: purchased
T2 sequence (P11387 1-765): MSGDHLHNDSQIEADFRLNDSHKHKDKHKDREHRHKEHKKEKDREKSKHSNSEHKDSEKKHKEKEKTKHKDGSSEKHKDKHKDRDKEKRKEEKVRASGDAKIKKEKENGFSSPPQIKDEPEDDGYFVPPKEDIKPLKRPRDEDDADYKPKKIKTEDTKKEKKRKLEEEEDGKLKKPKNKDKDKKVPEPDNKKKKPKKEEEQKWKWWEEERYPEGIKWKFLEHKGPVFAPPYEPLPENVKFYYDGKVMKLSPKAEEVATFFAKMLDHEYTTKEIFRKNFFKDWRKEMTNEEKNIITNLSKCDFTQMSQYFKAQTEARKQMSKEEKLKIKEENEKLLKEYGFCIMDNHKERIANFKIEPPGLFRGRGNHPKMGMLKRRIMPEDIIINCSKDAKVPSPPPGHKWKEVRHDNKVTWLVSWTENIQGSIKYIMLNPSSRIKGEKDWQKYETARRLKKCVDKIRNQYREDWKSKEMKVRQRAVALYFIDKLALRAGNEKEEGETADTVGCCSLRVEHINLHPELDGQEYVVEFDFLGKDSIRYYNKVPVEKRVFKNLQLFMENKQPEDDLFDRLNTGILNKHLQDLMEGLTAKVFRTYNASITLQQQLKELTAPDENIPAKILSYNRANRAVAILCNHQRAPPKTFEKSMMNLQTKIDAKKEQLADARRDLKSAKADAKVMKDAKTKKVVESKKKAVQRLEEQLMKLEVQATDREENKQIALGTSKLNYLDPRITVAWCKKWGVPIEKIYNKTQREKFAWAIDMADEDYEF
The data set can be described thus: Topoisomerase I inhibition, human DNA topoisomerase Elisa kit. It is filed as biochemical. Particulars: ± SEM. The protocol: as §1, §2, §3, §4, §5

The subject of data set [10] is human melanoma LOX IMVI. Particulars: read-out: In vitro cytotoxicity (IC50) LOX IMVI (µM ± SEM), MTT assay.

Like-named read-outs stand apart in the source and are kept apart here.

In general, IC50 refers to the concentration that inhibits the measured activity by half. Regarding `O=C(CN1C(=O)S/C(=C\c2cc(-c3ccc(Cl)cc3)c3[nH]c4ccccc4c3c2)C1=O)N1CCOCC1` [VI], the concentration for half-maximal inhibition (IC50) in data set [1] was 0.97 ± 0.13 µM.
Usually viability stands for a per cent measure of how many cells are alive, often set against a control. In data set [2] (A498), `COc1cccc2c1C(=O)c1c(O)c3c(c(O)c1C2=O)C[C@@](O)(C(=O)CO)C[C@@H]3O[C@H]1C[C@H](N)[C@H](O)[C@H](C)O1` [Doxorubicin, reference compound] yielded a viability at 0.4 µM of 64.5%, a viability at 1.6 µM of 55.3%, a viability at 25 µM of 37.6% and a viability at 100 µM of 26.6%. For the same molecule, in [2] (A498, read-out: In vitro cytotoxicity (IC50) A498 cell line (µM ± SEM)), the IC50 came out at 3.59 ± 0.2 µM. Moreover, in data set [3], the “Apoptosis Early” value is 1.94%, the “Apoptosis Late” value was 28.53%, the “Apoptosis Total” value is given as 46.29% and the Necrosis was found to be 15.82%. Moreover, on topoisomerase IIβ, the half-maximal inhibitory concentration (IC50) is 6.49 ± 0.35 µM. In the data set on human melanoma LOX IMVI [4], the viability at 0.4 µM worked out at 70.4%, the viability at 1.6 µM was found to be 58.2%, the viability at 25 µM is 42.6% and the viability at 100 µM amounted to 30.4%. The half-maximal inhibitory concentration (IC50) in the data set with human melanoma LOX IMVI [4] (read-out: In vitro cytotoxicity (IC50) LOX IMVI (µM ± SEM)) amounted to 7.03 ± 0.4 µM. Moreover, the half-inhibitory concentration (IC50) in the data set on normal cell line WI 38 came to 18.1 ± 0.98 µM. Besides, in data set [5], the “%G0-G1 DNA content” value was 37.85%, the “%G2/M DNA content” value came to 5.94%, the “%Pre-G1 DNA content” value was determined as 46.29% and the “%S DNA content” value was determined as 56.21%. For the same molecule, the “PARP-1 OD” value in the data set with PARP-1 was found to be 0.38. Moreover, the “Caspace-3 Optical density (OD)” value with active caspase-3 is on record as 5.67. Besides, in the data set on Bax, the “Bax OD” value is on record as 6.56.
Consider `Cc1ccc(C(=O)CN2C(=O)S/C(=C\C3=C(Cl)c4cc(C)c(C)cc4CCC3)C2=O)cc1` [IV], for which the figures for the IC50 in data set [6] and in data set [7] were 1.91 ± 0.03 µM and 13.39 ± 0.04 µM, respectively.
`Cn1c(/C=C2\SC(=O)N(CC(=O)Nc3nc(-c4ccccc4)cs3)C2=O)nc2ccccc21` [V]: the half-inhibitory concentration (IC50) in [8] is 11.5 ± 1.46 µM.
In the case of `N.N.[Cl][Pt][Cl]` [Cisplatin, reference compound], the IC50 stood at 7.92 ± 0.45 µM in [9]; 11.3 ± 0.62 µM at topoisomerase IIβ (± SEM, read-out: Topoisomerase II IC50 µM ± SEM); 5.71 ± 0.31 µM against topoisomerase Iα; 5.07 ± 0.29 µM in the data set with human melanoma LOX IMVI [10].

Values taken from publication PMC11480511 (Scientific Reports, 2024).
